The source of these data is US20230000869A1, “NOVEL ALK2 INHIBITORS AND METHODS FOR INHIBITING BMP SIGNALING” (The Brigham and Women's Hospital, Inc., priority 2017, published 2023).

Where only a bound is given, the exact number is not on record here.

For one assay, the system named is TGFβ. As to the kind of experiment: Luciferase reporter gene assay for TGFβ activity (HEK293T SBE-Luc SMAD2/3 reporter, TGFβ agonist). The conditions noted are these: Homo sapiens, HEK-293T, TGFβ 5 ng/mL. In kind it is cell-based. The protocol: (§1) All cell lines were cultured in DMEM, supplemented with […] and 1% Pen/Strep. All media reagents were obtained from Gibco. BMP6, BMP9, and TGFβ were obtained from R&D Systems. C2C12-BRE and HEK293T-SBE were kept in selection with 400 ug/mL G418 from Invivogen.
(§2) In this reporter gene cell based ALK2 and TGFβ assay, the C2C12 cell line was employed for the measurement of ALK2 activity, using a BRE-Luc SMAD1/5/8 reporter and BMP6 as the agonist. The HEK293T cell line was employed to measure TGFβ activity, using a SBE-Luc SMAD2/3 reporter and TGFβ as the agonist. Luciferase reporter assays were read using Promega Steady-Glo Luciferase Assay System.
(§3) Cells were plated in 96 well white clear bottom assay plates at 10 k cells/well for C2C12-BRE, 15 k cells/well for HEK293-SBE in DMEM containing 2% FBS 1% P/S. Cells were given a minimum of 4 hours in incubator at 37° C./5% CO2 to adhere prior to further treatment. Compounds were diluted in DMSO to a 10-point dilution curve and added to the plate to reach the following final concentrations: 10000, 3000, 1000, 300, 100, and 30 nM in the HEK293-SBE assay and 1000, 300, 100, 30, 10, 3, 1, 0.3 nM in the C2C12-BRE assay. Negative and positive control wells received 2 μL DMSO as vehicle treatment. Plates were returned to incubator for 45 minutes and then BMP6 and TGFB were added to a final concentration of 50 ng/mL and 5 ng/mL, respectively. Plates were returned to the incubator and left overnight. After a minimum of 18 hours post BMP6/TGFβ addition, the plates were read using Promega Steady-Glo Luciferase Assay System. A 1:1 mixture of prepared steady-glo and phenol free DMEM was prepared, and 50 μL/well was added to the assay plates whose media had been flicked off. Plates were given 10 minutes post steady-glo addition before luminescence was read on a Spectramax M5e microplate reader. Negative control wells were averaged and subtracted from all other wells on the plate. Inhibition was calculated as the percent of signal loss compared to the averaged positive control wells.

Another assay has as its target T1, ALK2 (Mus musculus, UniProt P37172).
T1 construct: endogenous in cells; host or cells: C2C12-BRE (BRE-Luc reporter line, G418 selection)
T1 sequence (P37172 21-509): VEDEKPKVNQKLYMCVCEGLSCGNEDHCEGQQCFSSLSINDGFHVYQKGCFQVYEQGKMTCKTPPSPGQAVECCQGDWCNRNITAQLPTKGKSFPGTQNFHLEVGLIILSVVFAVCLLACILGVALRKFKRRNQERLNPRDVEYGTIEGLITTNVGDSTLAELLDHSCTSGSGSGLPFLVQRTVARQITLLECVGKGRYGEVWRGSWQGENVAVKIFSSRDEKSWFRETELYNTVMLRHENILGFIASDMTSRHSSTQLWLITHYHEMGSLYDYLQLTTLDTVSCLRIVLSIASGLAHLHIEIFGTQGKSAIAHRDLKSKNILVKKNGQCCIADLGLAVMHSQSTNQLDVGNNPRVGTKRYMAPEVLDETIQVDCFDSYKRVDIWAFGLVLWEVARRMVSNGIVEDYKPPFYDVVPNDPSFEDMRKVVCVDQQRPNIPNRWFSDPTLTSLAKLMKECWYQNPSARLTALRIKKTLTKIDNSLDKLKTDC
As to the kind of experiment: Luciferase reporter gene assay for ALK2 activity (C2C12 BRE-Luc SMAD1/5/8 reporter, BMP6 agonist). In kind it is cell-based. The note with it: BMP6 50 ng/mL. The protocol: as §1, §2, §3

As to `COc1ccc2nccc(-c3cnn4cc(N5CC(N6CCN(C)CC6)C5)cnc34)c2c1` [Compound 221], the IC50 in the assay with TGFβ was 0.277 µM; at ALK2, 0.006 µM.

With `Cc1cc(-c2cnn3cc(N4CC(N5CCN(C)CC5)C4)cnc23)c2ccccc2n1` [Compound 222], the results for the IC50 with TGFβ and on ALK2 were 0.07 µM and 0.014 µM, respectively.

As for `Cc1cc(-c2cnn3cc(N4CCC(N5CCN(C)CC5)CC4)cc(OC4CCOCC4)c23)c2ccccc2n1` [Compound 223], the IC50 was over 3 µM with TGFβ and 0.272 µM on ALK2.

For the compound `COc1cc2c(-c3cnn4cc(N5CCC(N6CCN(C)CC6)CC5)cc(OC5CCOCC5)c34)ccnc2cc1F` [Compound 224], the IC50 with TGFβ was over 3 µM; at ALK2, over 1 µM.

Regarding `CN1CCN(C2CCN(c3cc(OC4CCOCC4)c4c(-c5cn[nH]c5)cnn4c3)CC2)CC1` [Compound 225], the IC50 in the assay with TGFβ was over 3 µM; on ALK2, over 1 µM.

For `Cc1cc2nccc(-c3cnn4cc(N5CCC(N6CCN(C)CC6)CC5)cnc34)c2s1` [Compound 226], the IC50 in the assay with TGFβ was over 1 µM; on ALK2, 0.018 µM.

Take `Cc1cc2nccc(-c3cnn4cc(N5CCC(N6CCN(C)CC6)CC5)cnc34)c2[nH]1` [Compound 227]: the results for the IC50 with TGFβ and on ALK2 were 0.826 µM and 0.903 µM, respectively.

Regarding `CN1CCN(C2CCN(c3cnc4c(-c5ccnc6cc[nH]c56)cnn4c3)CC2)CC1` [Compound 228], the IC50 in the assay with TGFβ was 0.605 µM; at ALK2, 0.476 µM.

In the case of `CN1CCN(C2CCN(c3cnc4c(-c5cc(N)nc6ccccc56)cnn4c3)CC2)CC1` [Compound 229], the values for the IC50 with TGFβ and at ALK2 were 0.009 µM and 0.052 µM, respectively.

Consider `COc1cc2c(-c3cnn4cc(N5CCC(N6CCN(C)CC6)CC5)ccc34)ccnc2cc1F` [Compound 230], for which the figures for the IC50 in the assay with TGFβ and on ALK2 were 0.505 µM and 0.046 µM, respectively.

For `Cc1cc2nccc(-c3cnn4cc(N5CCC(N6CCN(C)CC6)CC5)cnc34)c2cc1C` [Compound 233], the IC50 was determined as 0.589 µM in the assay with TGFβ and 0.07 µM on ALK2.

For the compound `CN1CCN(C2CCN(c3cnc4c(-c5ccnc6ccc(C#N)cc56)cnn4c3)CC2)CC1` [Compound 234], the IC50 in the assay on TGFβ and at ALK2 was over 1 µM in each case.

Regarding `CN1CCN(C2CCN(c3cnc4c(-c5ccnc6ccc(C(F)(F)F)cc56)cnn4c3)CC2)CC1` [Compound 235], the IC50 in the assay with TGFβ is over 1 µM; at ALK2, 0.025 µM.

Consider `CN1CCN(C2CCN(c3cnc4c(-c5cc(C(F)(F)F)nc6ccccc56)cnn4c3)CC2)CC1` [Compound 236], for which the IC50 in the assay with TGFβ is 0.267 µM; on ALK2, 0.975 µM.

Regarding `CN1CCN(C2CCN(c3cnc4c(-c5cc(C#N)nc6ccccc56)cnn4c3)CC2)CC1` [Compound 237], the IC50 in the assay on TGFβ is 0.24 µM; on ALK2, 0.006 µM.

As to `CN1CCN(C2CCN(c3cnc4c(-c5cc(C(F)F)nc6ccccc56)cnn4c3)CC2)CC1` [Compound 238], the IC50 in the assay with TGFβ turned out to be 0.306 µM; on ALK2 it was 0.175 µM.

On to `COc1cc2c(-c3cnn4cc(N5CCC(N6CCN(C)CC6)CC5)cnc34)ccnc2cc1O` [Compound 239], for which the IC50 in the assay with TGFβ is over 1 µM; on ALK2, 0.032 µM.

In the case of `CN1CCN(C2CCN(c3cnc4c(-c5ccnc6cc(F)c(Cl)cc56)cnn4c3)CC2)CC1` [Compound 240], the results for the IC50 in the assay with TGFβ and on ALK2 were 0.291 µM and 0.016 µM, respectively.

With `CN1CCN(C2CCN(c3cnc4c(-c5ccnc6ccc(Cl)cc56)cnn4c3)CC2)CC1` [Compound 241], the results for the IC50 in the assay on TGFβ and at ALK2 were over 1 µM and 0.092 µM, respectively.

As to `CN1CCN(C2CCN(c3cnc4c(-c5ccnc6cc(F)c(O)cc56)cnn4c3)CC2)CC1` [Compound 242], the half-maximal inhibitory concentration (IC50) in the assay on TGFβ was under 0.01 µM; on ALK2, 0.037 µM.

`CN1CCN(C2CCN(c3cnc4c(-c5cccc6[nH]ncc56)cnn4c3)CC2)CC1` [Compound 243]: the values for the IC50 with TGFβ and on ALK2 were over 2 µM and over 1 µM, respectively.

Turning to `CN1CCN(C2CCN(c3cnc4c(-c5ccnc6cc(Cl)ccc56)cnn4c3)CC2)CC1` [Compound 244], the IC50 stood at 0.328 µM with TGFβ and 0.03 µM on ALK2.

Take `Cc1cc(-c2cnn3cc(N4CCC(N5CCN(C)CC5)CC4)cnc23)c2ccc(C(F)(F)F)cc2n1` [Compound 245]: the IC50 in the assay on TGFβ was 0.468 µM; on ALK2, over 1 µM.

Turning to `CN1CCN(C2CCN(c3cnc4c(-c5cnn(C)c5)cnn4c3)CC2)CC1` [Compound 246], the IC50 with TGFβ and on ALK2 was over 1 µM throughout.

In the case of `CN1CCN(C2CCN(c3cnc4c(-c5ccnc6[nH]ccc56)cnn4c3)CC2)CC1` [Compound 247], the IC50 with TGFβ is over 3 µM; at ALK2 it was 0.013 µM.

On to `CN1CCN(C2CCN(c3cnc4c(-c5ccnc6ccsc56)cnn4c3)CC2)CC1` [Compound 248], for which the IC50 in the assay with TGFβ came to 2.88 µM; on ALK2, 0.057 µM.

For `CN1CCN(C2CCN(c3cnc4c(-c5ccnc(N)c5)cnn4c3)CC2)CC1` [Compound 249], the IC50 in the assay on TGFβ and at ALK2 was over 1 µM each time.

For `CN1CCN(C2CCN(c3cnc4c(-c5ccnc6sccc56)cnn4c3)CC2)CC1` [Compound 250], the results for the IC50 in the assay with TGFβ and on ALK2 were 0.202 µM and 0.017 µM, respectively.

Regarding `CN1CCN(C2CCN(c3cnc4c(-c5ccnc6ccc(F)cc56)cnn4c3)CC2)CC1` [Compound 251], the IC50 is 0.209 µM in the assay on TGFβ and 0.026 µM at ALK2.

With `CN1CCN(C2CCN(c3cnc4c(-c5ccnc6ccc(OC(F)(F)F)cc56)cnn4c3)CC2)CC1` [Compound 252], the IC50 in the assay with TGFβ was 0.012 µM; on ALK2, 0.085 µM.

In the case of `CN1CCN(C2CCN(c3cnc4c(-c5ccnc6c5ccn6C)cnn4c3)CC2)CC1` [Compound 253], the IC50 in the assay with TGFβ was over 1 µM; on ALK2, 0.193 µM.

For the compound `COc1ccc2c(-c3cnn4cc(N5CCC(N6CCN(C)CC6)CC5)cnc34)ccnc2c1` [Compound 254], the IC50 with TGFβ is over 1 µM; on ALK2, 0.244 µM.

With `Cc1cc(-c2cnn3cc(N4CCC(N5CCN(C)CC5)CC4)cnc23)c2ccc(F)cc2n1` [Compound 255], the IC50 in the assay with TGFβ worked out at 0.028 µM; on ALK2, 0.068 µM.

In the case of `CN1CCN(C2CCN(c3cnc4c(-c5ccnc6cc(F)ccc56)cnn4c3)CC2)CC1` [Compound 256], the IC50 in the assay on TGFβ turned out to be 0.104 µM; on ALK2, 0.01 µM.

Take `CN1CCN(C2CCN(c3cnc4c(-c5ccnc6cc(C(F)(F)F)ccc56)cnn4c3)CC2)CC1` [Compound 257]: the IC50 in the assay on TGFβ and at ALK2 was over 1 µM throughout.

For `CNC(=O)c1cc(-c2cnn3cc(N4CCC(N5CCN(C)CC5)CC4)cnc23)ccn1` [Compound 258], the IC50 was 0.964 µM in the assay on TGFβ and 0.197 µM at ALK2.

Turning to `CN1CCN(C2CCN(c3cnc4c(-c5ccnc6c(F)cccc56)cnn4c3)CC2)CC1` [Compound 260], the IC50 is 0.229 µM in the assay on TGFβ and 0.012 µM at ALK2.

For the compound `CN1CCN(C2CCN(c3cnc4c(-c5ccnc6ncccc56)cnn4c3)CC2)CC1` [Compound 261], the results for the IC50 in the assay with TGFβ and on ALK2 were 0.916 µM and 0.019 µM, respectively.

Regarding `CN1CCN(C2CCN(c3cnc4c(-c5ccnc6cc(OC(F)(F)F)ccc56)cnn4c3)CC2)CC1` [Compound 262], the IC50 with TGFβ is over 3 µM; at ALK2 it was over 1 µM.

Turning to `CN1CCN(C2CCN(c3cnc4c(-c5ccnc6cc(C#N)ccc56)cnn4c3)CC2)CC1` [Compound 263], the half-maximal inhibitory concentration (IC50) was determined as 0.424 µM with TGFβ and 0.295 µM at ALK2.

As for `CN1CCN(C2CCN(c3cnc4c(-c5ccnc6cc(F)c(N)cc56)cnn4c3)CC2)CC1` [Compound 264], the figures for the IC50 in the assay on TGFβ and at ALK2 were 0.383 µM and 0.018 µM, respectively.

Turning to `Cc1cc2c(-c3cnn4cc(N5CCC(N6CCN(C)CC6)CC5)cnc34)ccnc2cc1F` [Compound 266], the IC50 in the assay on TGFβ is 0.138 µM; on ALK2, 0.017 µM.

On to `CN1CCN(C2CCN(c3cnc4c(-c5ccnc6ccc(Cl)c(F)c56)cnn4c3)CC2)CC1` [Compound 267], for which the IC50 in the assay with TGFβ was over 2 µM; on ALK2, 0.162 µM.
